Each compound was assayed against human Arginine Vasopressin Receptor 1a (AVPR1a) (Homo sapiens, UniProt P37288) (assay: cell-based). Settings: not given.
Chain of human Arginine Vasopressin Receptor 1a (AVPR1a) (P37288 whole entry): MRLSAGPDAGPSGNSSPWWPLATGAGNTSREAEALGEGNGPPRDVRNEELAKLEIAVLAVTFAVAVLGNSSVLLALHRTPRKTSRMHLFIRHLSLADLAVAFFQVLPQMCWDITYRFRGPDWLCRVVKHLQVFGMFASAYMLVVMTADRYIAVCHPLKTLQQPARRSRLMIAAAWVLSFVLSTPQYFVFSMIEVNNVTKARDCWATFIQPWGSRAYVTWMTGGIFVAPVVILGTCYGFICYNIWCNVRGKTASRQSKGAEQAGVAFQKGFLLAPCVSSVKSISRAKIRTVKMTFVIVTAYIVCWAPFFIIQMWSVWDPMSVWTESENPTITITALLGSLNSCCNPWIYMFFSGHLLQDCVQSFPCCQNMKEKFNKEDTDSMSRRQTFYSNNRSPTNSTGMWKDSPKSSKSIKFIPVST
With `Cc1ccc(N2CCC(C(=O)N(CC3CC3)c3ccc(Cl)cc3)CC2)nc1` [Compound 149] the IC50 was 20 nM. For `N#CC1(c2ccccc2)CCN(C(=O)N2CCCCc3cc(Cl)ccc32)CC1` [Compound 134], the IC50 was 358 nM. `O=C(C1CCN(c2ncccc2F)CC1)N(CC1CC1)c1ccc(Cl)cc1` [Compound 140] was tested, and the IC50 was 15 nM. In the case of `O=C(C1CCN(c2ccc(F)cn2)CC1)N(CC1CC1)c1ccc(Cl)cc1` [Compound 146], the IC50 is reported as 24 nM.

Same assay, conditions: read-out: V1a-R IC50
Compound `O=C(C1CCN(c2ncnc3ccc(F)cc23)CC1)N1CCCCc2cc(Cl)ccc21` [Compound 212] has an IC50 of 49 nM. Work on `N#Cc1ccc(N2CCC(C(=O)N(CC3CC3)c3ccc(Cl)cc3)CC2)nc1` [Compound 153] yielded an IC50 of 800 nM. Work on `O=C(C1CCN(c2nc3ccc(Cl)cc3o2)CC1)N1CCCCc2cc(Cl)ccc21` [Compound 214] yielded an IC50 of 45 nM. `O=C(C1CCN(c2ncc3c(n2)CCC3)CC1)N1CCCCc2cc(Cl)ccc21` [Compound 215] was tested, and the IC50 was 7 nM. `O=C(C1CCN(c2ccc(F)cn2)CC1)N1CCCCc2cc(Cl)ccc21` [Compound 224] showed an IC50 of 11 nM. Work on `O=C(N1CCC2(CC1)OCc1ccccc12)N1CCCCc2cc(Cl)ccc21` [V:293] yielded an IC50 of 78 nM. `Cc1cc(C)nc(N2CCC(C(=O)N3CCCC(O)c4cc(Cl)ccc43)CC2)n1` (stereo not shown) [Compound 195] showed an IC50 of 26 nM. Work on `O=C(c1ccc(F)c(F)c1)N1CCC(C(=O)N2CCCCc3cc(Cl)ccc32)CC1` [Compound 90] yielded an IC50 of 1520 nM. `Cc1cc(C)nc(N2CCC(C(=O)N(CC3CCC3)c3ccc(Cl)cc3)CC2)n1` [Compound 200] was tested, and the IC50 was 229 nM. `O=C(c1ccccc1)N1CCC(C(=O)N2CCCCc3cc(Cl)ccc32)CC1` [Compound 83] gave an IC50 of 1820 nM. `O=C(N1CCN(c2ccccc2)CC1)N1CCCCc2cc(Cl)ccc21` [Compound 128] showed an IC50 of 27 nM. `CCCN(C(=O)C1CCN(c2nc(C)cc(C)n2)CC1)c1ccc(Cl)cc1` [Compound 198] gave an IC50 of 284 nM. In the case of `Cc1cc(Cl)cnc1N1CCC(C(=O)N(CC2CC2)c2ccc(Cl)cc2)CC1` [Compound 217], the IC50 is reported as 50 nM. `CCc1cnc(N2CCC(C(=O)N(CC3CC3)c3ccc(Cl)cc3)CC2)nc1` [Compound 188] was tested, and the IC50 was 227 nM. Work on `O=C(N1CCN(c2nccs2)CC1)N1CCCCc2cc(Cl)ccc21` [Compound 127] yielded an IC50 of 267 nM. For `Cc1ccc(Cl)cc1N1CCN(C(=O)N2CCCCc3cc(Cl)ccc32)CC1` [Compound 130], the IC50 was 279 nM. `Cc1cccnc1N1CCN(C(=O)N2CCCCc3cc(Cl)ccc32)CC1` [Compound 124] showed an IC50 of 40 nM. In the case of `Cc1ccnc(N2CCN(C(=O)N(CC3CC3)c3ccc(Cl)cc3)CC2)c1` [Compound 161], the IC50 is reported as 16 nM. `O=C(C1CCN(c2ncc3ccccc3n2)CC1)N1CCCCc2cc(Cl)ccc21` [Compound 211] showed an IC50 of 16 nM. `Cc1cc(C)nc(N2CCC(C(=O)N3CCCC(C)(O)c4cc(Cl)ccc43)CC2)n1` (stereo not shown) [Compound 197] showed an IC50 of 134 nM. Work on `Cc1cc(N2CCC(C(=O)N(CC3CC3)c3ccc(Cl)cc3)CC2)nc(C)n1` [Compound 192] yielded an IC50 of 1250 nM. In the case of `O=C(N1CCN(c2cc(Cl)cc(Cl)c2)CC1)N1CCCCc2cc(Cl)ccc21` [Compound 129], the IC50 is reported as 205 nM. `Cc1cncc(C(=O)N2CCC(C(=O)N3CCCCc4cc(Cl)ccc43)CC2)c1` [Compound 117] was tested, and the IC50 was 1160 nM. `CCC(CC)C(=O)N1CCC(C(=O)N2CCCCc3cc(Cl)ccc32)CC1` [Compound 79] was tested, and the IC50 was 5400 nM. With `O=C(C1CCN(c2nc3ccccc3o2)CC1)N1CCCCc2cc(Cl)ccc21` [Compound 213] the IC50 was 24 nM. `N#Cc1cccnc1N1CCN(C(=O)N(CC2CC2)c2ccc(Cl)cc2)CC1` [Compound 159] showed an IC50 of 81 nM. In the case of `O=C(C1CCN(c2ncc(C(F)(F)F)cn2)CC1)N1CCCCc2cc(Cl)ccc21` [Compound 210], the IC50 is reported as 89 nM. Compound `N#Cc1ccc(C(=O)N2CCC(C(=O)N3CCCCc4cc(Cl)ccc43)CC2)cc1` [Compound 113] has an IC50 of 5760 nM. For `O=C(C1CCN(c2ncnc3cc(Cl)ccc23)CC1)N(CC1CC1)c1ccc(Cl)cc1` [Compound 193], the IC50 was 861 nM. Work on `Cc1cc(C)nc(N2CCC(C(=O)N(CCC(C)C)c3ccc(Cl)cc3)CC2)n1` [Compound 199] yielded an IC50 of 794 nM. `O=C(N1CCN(c2ncccn2)CC1)N1CCCCc2cc(Cl)ccc21` [Compound 123] showed an IC50 of 256 nM. With `N#Cc1cccnc1N1CCC(C(=O)N(CC2CC2)c2ccc(Cl)cc2)CC1` [Compound 142] the IC50 was 67 nM. With `O=C(c1cc2ccccc2[nH]1)N1CCC(C(=O)N2CCCCc3cc(Cl)ccc32)CC1` [Compound 121] the IC50 was 446 nM. Compound `Cc1cccc(N2CCC(C(=O)N(CC3CC3)c3ccc(Cl)cc3)CC2)n1` [Compound 150] has an IC50 of 23 nM. For `O=C(c1ccc(Cl)cc1Cl)N1CCC(C(=O)N2CCCCc3cc(Cl)ccc32)CC1` [Compound 89], the IC50 was 1800 nM. For `CCC(CC)N(C(=O)C1CCN(c2nc(C)cc(C)n2)CC1)c1ccc(Cl)cc1` [Compound 228], the IC50 was 4940 nM. Compound `Cc1ccnc(N2CCC(C(=O)N(CC3CC3)c3ccc(Cl)cc3)CC2)n1` [Compound 169] has an IC50 of 51 nM. For `O=C(C1CCN(c2ncccn2)CC1)N1CCCCc2cc(Cl)ccc21` [Compound 110], the IC50 was 207 nM. Compound `Cc1cnc(N2CCN(C(=O)N(CC3CC3)c3ccc(Cl)cc3)CC2)nc1` [Compound 156] has an IC50 of 17 nM. In the case of `COc1ccnc(N2CCC(C(=O)N(CC3CC3)c3ccc(Cl)cc3)CC2)n1` [Compound 172], the IC50 is reported as 17 nM. For `O=C(c1csc2ccccc12)N1CCC(C(=O)N2CCCCc3cc(Cl)ccc32)CC1` [Compound 119], the IC50 was 621 nM. For `O=C(C1CCN(c2ncc(Cl)cc2F)CC1)N(CC1CC1)c1ccc(Cl)cc1` [Compound 219], the IC50 was 61 nM. Compound `O=C(c1c(F)cccc1F)N1CCC(C(=O)N2CCCCc3cc(Cl)ccc32)CC1` [Compound 92] has an IC50 of 1720 nM. With `N#Cc1cccnc1N1CCC(C(=O)N2CCCCc3cc(Cl)ccc32)CC1` [Compound 111] the IC50 was 130 nM. For `O=C(N1CCN(c2ncc(Cl)cn2)CC1)N(CC1CC1)c1ccc(Cl)cc1` [Compound 157], the IC50 was 206 nM. Work on `COc1ccnc(N2CCC(C(=O)N3CCCCc4cc(Cl)ccc43)CC2)n1` [Compound 175] yielded an IC50 of 11 nM. `O=C(C1CCN(c2ccccn2)CC1)N1CCCCc2cc(Cl)ccc21` [Compound 109] gave an IC50 of 5 nM. `O=C(N1CCN(c2ncccc2Cl)CC1)N1CCCCc2cc(Cl)ccc21` [Compound 125] gave an IC50 of 57 nM. With `O=C(C1CCN(c2ncccc2C(F)(F)F)CC1)N(CC1CC1)c1ccc(Cl)cc1` [Compound 143] the IC50 was 84 nM. `O=C(C1CCN(c2ncc(C(F)(F)F)cn2)CC1)N(CC1CC1)c1ccc(Cl)cc1` [Compound 203] gave an IC50 of 570 nM. `O=C(C1CCN(c2ncc(F)cn2)CC1)N1CCCCc2cc(Cl)ccc21` [Compound 162] showed an IC50 of 35 nM. `Cc1cc(C)nc(N2CCC(C(=O)N3CCCC(=O)c4cc(Cl)ccc43)CC2)n1` [Compound 194] gave an IC50 of 158 nM. `O=C(c1ccc(Cl)cc1)N1CCC(C(=O)N2CCCCc3cc(Cl)ccc32)CC1` [Compound 86] was tested, and the IC50 was 835 nM. `Cc1nc(N2CCC(C(=O)N3CCCCc4cc(Cl)ccc43)CC2)ncc1Cl` [Compound 184] showed an IC50 of 26 nM. `CC(C)(C)C(=O)N1CCC(C(=O)N2CCCCc3cc(Cl)ccc32)CC1` [Compound 82] was tested, and the IC50 was 2490 nM. For `Cc1cc(C)nc(N2CCC(C(=O)N3CCCC(F)c4cc(Cl)ccc43)CC2)n1` (stereo not shown) [Compound 196], the IC50 was 84 nM. `O=C(N1CCN(c2ccc(C(F)(F)F)cc2)CC1)N1CCCCc2cc(Cl)ccc21` [Compound 132] was tested, and the IC50 was 29 nM. `O=C(C1CCN(c2ncnc3cc(Cl)ccc23)CC1)N1CCCCc2cc(Cl)ccc21` [Compound 187] showed an IC50 of 66 nM. For `O=C(C1CCN(c2nccc(C(F)(F)F)n2)CC1)N1CCCCc2cc(Cl)ccc21` [Compound 174], the IC50 was 82 nM. `Cc1cc(Cl)cnc1N1CCC(C(=O)N2CCCCc3cc(Cl)ccc32)CC1` [Compound 221] showed an IC50 of 7 nM. Work on `Cc1cccnc1N1CCC(C(=O)N(CC2CC2)c2ccc(Cl)cc2)CC1` [Compound 147] yielded an IC50 of 7 nM. Compound `O=C(c1ccccc1F)N1CCC(C(=O)N2CCCCc3cc(Cl)ccc32)CC1` [Compound 84] has an IC50 of 1490 nM. `O=C(c1c[nH]c2ccccc12)N1CCC(C(=O)N2CCCCc3cc(Cl)ccc32)CC1` [Compound 120] gave an IC50 of 249 nM. Compound `O=C(C1CCN(c2ncc(Cl)cc2F)CC1)N1CCCCc2cc(Cl)ccc21` [Compound 223] has an IC50 of 19 nM. For `O=C(c1ccncc1)N1CCC(C(=O)N2CCCCc3cc(Cl)ccc32)CC1` [Compound 93], the IC50 was 5810 nM. `Cc1cnc(N2CCC(C(=O)N3CCCCc4cc(Cl)ccc43)CC2)c(F)c1` [Compound 222] was tested, and the IC50 was 5 nM. In the case of `Cc1cc(C)nc(N2CCC(C(=O)N3CCCCc4cc(Cl)ccc43)CC2)n1` [Compound 165], the IC50 is reported as 2 nM. In the case of `O=C(C1CCN(c2ncc(C3CC3)cn2)CC1)N1CCCCc2cc(Cl)ccc21` [Compound 209], the IC50 is reported as 69 nM. For `O=C(C1CCN(c2ncc(Cl)cn2)CC1)N1CCCCc2cc(Cl)ccc21` [Compound 164], the IC50 was 56 nM. Compound `O=C(C1CCN(c2ncc3c(n2)CCC3)CC1)N(CC1CC1)c1ccc(Cl)cc1` [Compound 208] has an IC50 of 33 nM. In the case of `Cc1nc(N2CCC(C(=O)N3CCCCc4cc(Cl)ccc43)CC2)ncc1F` [Compound 183], the IC50 is reported as 16 nM. For `O=C(C1CCN(C(=O)C23CC4CC(CC(C4)C2)C3)CC1)N1CCCCc2cc(Cl)ccc21` [Compound 81], the IC50 was 8080 nM. `O=C(C1CCN(c2ncc(Cl)cn2)CC1)N(CC1CC1)c1ccc(Cl)cc1` [Compound 167] was tested, and the IC50 was 195 nM. `O=C(C1CCN(c2nc3ccccc3o2)CC1)N(CC1CC1)c1ccc(Cl)cc1` [Compound 206] was tested, and the IC50 was 130 nM. `O=C(c1ccc(C(F)(F)F)cc1)N1CCC(C(=O)N2CCCCc3cc(Cl)ccc32)CC1` [Compound 87] gave an IC50 of 1870 nM. `O=C(C1CCN(c2ncc3ccccc3n2)CC1)N(CC1CC1)c1ccc(Cl)cc1` [Compound 204] was tested, and the IC50 was 97 nM. Work on `Cc1cc(C)nc(N2CCC(C(=O)N(CC3(C)COC3)c3ccc(Cl)cc3)CC2)n1` [Compound 227] yielded an IC50 of 517 nM. In the case of `Cc1nc(N2CCC(C(=O)N3CCCCc4cc(Cl)ccc43)CC2)c2ccccc2n1` [Compound 185], the IC50 is reported as 32 nM. In the case of `O=C(c1cc(F)cc(F)c1)N1CCC(C(=O)N2CCCCc3cc(Cl)ccc32)CC1` [Compound 116], the IC50 is reported as 1600 nM. For `N#Cc1ccc(N2CCC(C(=O)N3CCCCc4cc(Cl)ccc43)CC2)nc1` [Compound 112], the IC50 was 1230 nM. `O=C(C1CCN(c2ccnc(Cl)c2)CC1)N1CCCCc2cc(Cl)ccc21` [Compound 176] gave an IC50 of 216 nM.

From patent US20150376198A1, “MODULATORS OF VASOPRESSIN RECEPTORS WITH THERAPEUTIC POTENTIAL” (priority 2013, published 2015)
